Data published in patent US10697960B2, “CXCR4 and ROBO1 expression as markers for autoimmune diabetes” (BOARD OF SUPERVISORS OR LOUISANA STATE UNIVERSITY AND …, priority 2012, dated 2020).
“Also recorded” adds a separate entry of the source.

Assays:
[1] = system: NOD/ShiLtJ T cells on TNFα-activated MS1 islet endothelial cells; assay: Parallel plate flow chamber T cell adhesion assay with SDF-1 peptide mimetic; format: cell-based, mouse; conditions: MS1 cells treated 4 hours with 10 ng/ml TNFα; 150 mPa
Description: Hydrodynamic flow chamber assays were performed as otherwise described in C. Sharp et al. (2008). Briefly, T cells isolated as described above were labeled with CellTracker Green (C7025; Life Technologies, Carlsbad, Calif., USA), rinsed, and resuspended at a concentration of 2×10^6 cells/ml in phenol red-free Hanks' balanced salt solution (HBSS). The cells were placed in a beaker that had been previously coated with Sigmacote (Sigma-Aldrich), kept at 37° C., and stirred at 60 rev/min. A flow chamber insert and gasket with a 0.5 cm flow width and 250 μm thickness (GlycoTech, Gaithersburg, Md., USA) were used with 35 mm cell culture dishes containing confluent MS1 cell cultures to form a parallel plate flow chamber. To activate endothelial cells, MS1 cells were treated for 4 to 6 hours at 37° C. with 10 ng/ml recombinant mouse TNFα (T7539; Sigma).
For the SDF-1 peptide mimetic T cell adhesion assay, MS1 cells were rinsed with HBSS and treated for 10 minutes with an SDF-1 peptide mimetic (AYWKENKEQ with two branched lysines as a linker between the two motifs, SEQ ID NO 1) at […]. This peptide was a linearized version of a cyclized SDF-1 analogue reported by Tudan et al., “C-terminal cyclization of an SDF-1 small peptide analogue dramatically increases receptor affinity and activation of CXCR4 receptor,” J. Med. Chem., vol. 45, pp. 2024-31 (2002). T cells were pumped through polypropylene tubing by a syringe pump (KD Scientific, Holliston, Mass., USA) across the endothelial monolayer at a physiological shear stress of 150 mPa. Real-time digital video images (minimum 28 frames/second) were captured with an epifluorescence microscope (TE-2000 Eclipse; Nikon, Tokyo, Japan) and digital camera (Model C4742-95-12ER: Hamamatsu Photonics, Hamamatsu, Japan). Simple PCI software (Hamamatsu Photonics) was used to analyze the video and to measure T cell rolling velocities. Cells were considered firmly adherent if they remained stationary for 10 seconds within the field of view. A minimum of three videos per plate and four plates per condition were used for analysis.
We examined whether a linear SDF-1 peptide mimetic containing the receptor-binding site could replicate the effect of full length SDF-1 in blocking adhesion of T cells to activated endothelium. MS1 cells were treated for 4 hours with 10 ng/ml TNFα, followed by treatment for 10 minutes with an SDF-1 peptide mimetic at 200, 1000, or 5000 ng/ml. Cells were then tested in a parallel plate flow chamber cell adhesion assay. Fluorescently labeled T cells obtained from NOD/ShiLtJ mice flowed over the endothelial monolayers at 150 mPa. […] Leucocyte adhesion videos were analyzed to calculate T cell rolling velocity and to determine whether the decrease in firm adhesion was due to a decreased number of rolling cells.

[2] = system: NOD/ShiLtJ T cells on MS1 endothelial cells; assay: Anti-ROBO1 T cell detachment assay on MS1 endothelial monolayers under step-wise shear stress; format: cell-based, mouse; conditions: TNFα stimulation of MS1 cells versus unstimulated control
Description: T cell detachment assays were performed as otherwise described in C. Sharp et al. (2008). T cells were injected into the tubing via an inlet port upstream of the flow chamber at a concentration of 2×10^6 cells/ml and allowed to firmly adhere under static conditions for 15 minutes. Next, shear stress was initiated and increased in a step-wise manner every 30 seconds as follows: 35, 56, 91, 224, 504, and 980 mPa. The assay was recorded by video, which was analyzed to determine the percentage of cells detached at the end of each shear stress interval. For the anti-ROBO1 detachment assay, MS1 cells were treated for […] at 37° C. with TNFα as described above and then with 100 ng/ml recombinant mouse SDF-1α (460-SD; R&D Systems). T cells were pre-treated for 30 minutes at 37° C. with 20 μg/ml ROBO1 blocking antibody (GT15144; Neuromics, Edina, Minn., USA) or isotype control (GT15900; Neuromics).
Having established that T cell levels of ROBO1 differ between C57BL/6J and NOD/ShiLtJ mice, we investigated whether SDF-1-mediated firm adhesion defects were dependent on ROBO1-SLIT2 binding. We used a parallel plate flow chamber detachment assay. NOD/ShiLtJ T cells were first allowed to statically adhere to islet endothelial cell monolayers. […]

## TNFα
[1]
  TNFα-induced adhesion versus untreated endothelium: five times greater
[2]
  T cell attachment / resistance to shear-mediated detachment: increased attachment; also recorded: increased the resistance of T cells to shear-mediated detachment
